Source: ChEMBL document CHEMBL1127090, “In vitro cytotoxicity of GC sequence directed alkylating agents related to distamycin” (J Med Chem, 1993)

Legend:
Nucleic Acid [1] = test: Apparent binding constant to poly (dA.dT) DNA was evaluated by measuring the loss of ethidium fluorescence; format: nucleic-acid assay
Tequatrovirus T4 = test: Apparent binding constant to T4 coliphage DNA was evaluated by measuring the loss of ethidium fluorescence; format: functional
K562 [2] = test: Inhibitory activity against K-562 (human chronic myeloid Leukemia) cells; format: functional, cell-based
Bos taurus = organism: Bos taurus; test: Apparent binding constant to calf thymus DNA was evaluated by measuring the loss of ethidium fluorescence
Nucleic Acid [3] = test: Apparent binding constant to poly (dG.dC) DNA was evaluated by measuring the loss of ethidium fluorescence; format: nucleic-acid assay
DMS-273 = test: Cytotoxicity against the DMS273 Small Cell Lung Cancer cell line from human cancer.; format: functional; conditions: read-out: LC50 (the source's name)
EKVX = test: Cytotoxicity against the […] Non-Small Cell Lung Cancer cell line from human cancer; format: functional; conditions: read-out: LC50 (the source's name)
OVCAR-4 = test: Cytotoxicity against the OVCAR-4 Ovarian Cancer cell line from human cancer.; format: functional; conditions: read-out: LC50 (the source's name)
SW-620 = test: Cytotoxicity against the SW-620 Colon Cancer cell line from human cancer.; format: functional; conditions: read-out: LC50 (the source's name)
SNB-75 = test: Cytotoxicity against the SNB-75 CNS Cancer cell line from human cancer.; format: functional; conditions: read-out: LC50 (the source's name)
NCI-H23 = test: Cytotoxicity against the NCI-H23 Non-Small Cell Lung Cancer cell line from human cancer.; format: functional; conditions: read-out: LC50 (the source's name)
HL-60 = test: Cytotoxicity against the HL-60 (TB) Leukemia cell line from human cancer.; format: functional; conditions: read-out: LC50 (the source's name)
SK-MEL-2 = test: Cytotoxicity against the SK-MEL-2 Melanoma cell line from human cancer.; format: functional; conditions: read-out: LC50 (the source's name)
HOP-62 = test: Cytotoxicity against the HOP-62 Non-Small Cell Lung Cancer cell line from human cancer; format: functional; conditions: read-out: LC50 (the source's name)
SK-MEL-28 = test: Cytotoxicity against the SK-MEL-28 Melanoma cell line from human cancer.; format: functional; conditions: read-out: LC50 (the source's name)
MOLT-4 = test: Cytotoxicity against the Molt-4 Leukemia cell line from human cancer.; format: functional; conditions: read-out: LC50 (the source's name)
KM12 = test: Cytotoxicity against the KM12 Colon Cancer cell line from human cancer.; format: functional; conditions: read-out: LC50 (the source's name)
U-251 = test: Cytotoxicity against the U251 CNS Cancer cell line from human cancer.; format: functional; conditions: read-out: LC50 (the source's name)
SK-OV-3 = test: Cytotoxicity against the SK-OV-3 Ovarian Cancer cell line from human cancer.; format: functional; conditions: read-out: LC50 (the source's name)
OVCAR-3 = test: Cytotoxicity against the OVCAR-3 Ovarian Cancer cell line from human cancer.; format: functional; conditions: read-out: LC50 (the source's name)
SN12C = test: Cytotoxicity against the SN12C Renal Cancer cell line from human cancer.; format: functional; conditions: read-out: LC50 (the source's name)
K562 [4] = test: Cytotoxicity against the K-562 Leukemia cell line from human cancer.; format: functional; conditions: read-out: LC50 (the source's name)
DMS-114 = test: Cytotoxicity against the DMS114 Small Cell Lung Cancer cell line from human cancer.; format: functional; conditions: read-out: LC50 (the source's name)
M19-MEL = test: Cytotoxicity against the M19-MEL Melanoma cell line from human cancer.; format: functional; conditions: read-out: LC50 (the source's name)
Malme-3M = test: Cytotoxicity against the MALME-3M Melanoma cell line from human cancer.; format: functional; conditions: read-out: LC50 (the source's name)
HCC 2998 = test: Cytotoxicity against the HCC2998 Colon Cancer cell line from human cancer.; format: functional; conditions: read-out: LC50 (the source's name)
RXF 393 = test: Cytotoxicity against the RXF-393 Renal Cancer cell line from human cancer.; format: functional; conditions: read-out: LC50 (the source's name)
SF-268 = test: Cytotoxicity against the SF-268 CNS Cancer cell line from human cancer.; format: functional; conditions: read-out: LC50 (the source's name)
COLO 205 = test: Cytotoxicity against the COLO-205 Colon Cancer cell line from human cancer.; format: functional; conditions: read-out: LC50 (the source's name)

CN(C)CCNC(=O)c1nc(NC(=O)c2nc(NC=O)cn2C)cn1C
K app (Nucleic Acid [1]): 17000 M⁻¹
K app (Tequatrovirus T4): 40000 M⁻¹
IC50 (K562 [2]): > 500 µM
K app (Bos taurus): 32000 M⁻¹
K app (Nucleic Acid [3]): 23000 M⁻¹

CN(C)CCNC(=O)c1nc(NC(=O)c2nc(NC(=O)c3nc(NC(=O)c4ccc(N(CCCl)CCCl)cc4)cn3C)cn2C)cn1C
CC50 (DMS-273): 0.99 µM
CC50 (EKVX): 0.88 µM
CC50 (OVCAR-4): 0.61 µM
CC50 (SW-620): 0.79 µM
CC50 (SNB-75): 0.61 µM
K app (Nucleic Acid [1]): 950000 M⁻¹
CC50 (NCI-H23): 0.96 µM
CC50 (HL-60): 0.72 µM
CC50 (SK-MEL-2): 0.65 µM
CC50 (HOP-62): 1.17 µM
K app (Tequatrovirus T4): 168000 M⁻¹
CC50 (SK-MEL-28): 0.91 µM
CC50 (MOLT-4): 0.98 µM
CC50 (KM12): 0.96 µM
CC50 (U-251): 0.5 µM
CC50 (SK-OV-3): 0.83 µM
CC50 (OVCAR-3): 0.72 µM
CC50 (SN12C): 0.61 µM
CC50 (K562 [4]): 0.58 µM
CC50 (DMS-114): 0.54 µM
CC50 (M19-MEL): 0.56 µM
CC50 (Malme-3M): 2.63 µM
CC50 (HCC 2998): 0.68 µM
IC50 (K562 [2]): 0.3 µM
K app (Bos taurus): 591000 M⁻¹
CC50 (RXF 393): 0.66 µM
CC50 (SF-268): 0.77 µM
CC50 (COLO 205): 0.97 µM
K app (Nucleic Acid [3]): 495000 M⁻¹

CN(C)CCNC(=O)c1nc(NC(=O)c2nc(NC(=O)c3nc(NC=O)cn3C)cn2C)cn1C
K app (Nucleic Acid [1]): 594000 M⁻¹
K app (Tequatrovirus T4): 667000 M⁻¹
K app (Bos taurus): 774000 M⁻¹
K app (Nucleic Acid [3]): 613000 M⁻¹

CN(C)CCNC(=O)c1nc(NC=O)cn1C
K app (Bos taurus): 25000 M⁻¹
K app (Nucleic Acid [3]): 2000 M⁻¹

CN(C)CCNC(=O)c1nc(NC(=O)c2nc(NC(=O)C3CC3)cn2C)cn1C
IC50 (K562 [2]): > 500 µM

N[C@@H](Cc1ccc(N(CCCl)CCCl)cc1)C(=O)O [MELPHALAN]
IC50 (K562 [2]): 35 µM

CN(C)CCNC(=O)c1nc(NC(=O)c2nc(NC(=O)CCl)cn2C)cn1C
IC50 (K562 [2]): 350 µM

CCBr
K app (Nucleic Acid [1]): 9.5e+06 M⁻¹

CN(C)CCNC(=O)c1nc(NC(=O)c2nc(NC(=O)C(Cl)Cl)cn2C)cn1C
IC50 (K562 [2]): > 500 µM

CN(C)CCNC(=O)c1nc(NC(=O)c2nc(NC(=O)c3ccc(N(CCCl)CCCl)cc3)cn2C)cn1C
CC50 (EKVX): 47.5 µM
CC50 (OVCAR-4): 34.2 µM
CC50 (SW-620): 9.95 µM
CC50 (SNB-75): 41 µM
K app (Nucleic Acid [1]): 475000 M⁻¹
CC50 (NCI-H23): 47.1 µM
CC50 (HL-60): 7.84 µM
CC50 (SK-MEL-2): 7.17 µM
CC50 (HOP-62): 52.3 µM
K app (Tequatrovirus T4): 236000 M⁻¹
CC50 (SK-MEL-28): 5.69 µM
CC50 (MOLT-4): 18.1 µM
CC50 (KM12): 47 µM
CC50 (U-251): 6.73 µM
CC50 (SK-OV-3): 52.9 µM
CC50 (OVCAR-3): 56 µM
CC50 (SN12C): 15.6 µM
CC50 (K562 [4]): 17.2 µM
CC50 (DMS-114): 5.83 µM
CC50 (M19-MEL): 5.64 µM
CC50 (Malme-3M): 6.14 µM
CC50 (HCC 2998): 33.7 µM
IC50 (K562 [2]): 12.5 µM
K app (Bos taurus): 456000 M⁻¹
CC50 (RXF 393): 50.3 µM
CC50 (SF-268): 50 µM
CC50 (COLO 205): 5.88 µM
K app (Nucleic Acid [3]): 455000 M⁻¹

Cn1cc(NC(=O)c2cc(NC(=O)c3cc(NC=O)cn3C)cn2C)cc1C(=O)NCCC(=N)N [STALLIMYCIN]
K app (Nucleic Acid [1]): 3.48e+07 M⁻¹
K app (Tequatrovirus T4): 650000 M⁻¹
K app (Bos taurus): 774000 M⁻¹
K app (Nucleic Acid [3]): 203000 M⁻¹

CN(C)CCNC(=O)c1nc(NC(=O)c2nc(NC(=O)CBr)cn2C)cn1C
IC50 (K562 [2]): 400 µM
